Where “and” joins values, the source holds several entries; their conditions need not be identical. Identical values can stand only once.
Legend:
[1] = Recovery in dialysis device and stability in plasma during dialysis; assay type: in vitro ADME; conditions: 0.2, 2 and 10 µM, all species
Description: At three test concentrations (0.2, 2 and 10 µM), the plasma protein binding rate of iruplinalkib is as follows (Fig. 3a). […] With the increase of concentration, the protein binding rates of iruplinalkib in rat plasma decreased gradually, showing a certain concentration dependence, and there was no concentration dependence of protein binding rate observed in other species plasma.

OATP1B1 = target: T1, OATP1B1 (Homo sapiens, UniProt Q9Y6L6); assay: Uptake inhibitor investigation in HEK293 cells expressing transporter; assay type: in vitro ADME
T1 construct: No ESH6G27; host or cells: HEK293
T1 sequence (Q9Y6L6 1-691): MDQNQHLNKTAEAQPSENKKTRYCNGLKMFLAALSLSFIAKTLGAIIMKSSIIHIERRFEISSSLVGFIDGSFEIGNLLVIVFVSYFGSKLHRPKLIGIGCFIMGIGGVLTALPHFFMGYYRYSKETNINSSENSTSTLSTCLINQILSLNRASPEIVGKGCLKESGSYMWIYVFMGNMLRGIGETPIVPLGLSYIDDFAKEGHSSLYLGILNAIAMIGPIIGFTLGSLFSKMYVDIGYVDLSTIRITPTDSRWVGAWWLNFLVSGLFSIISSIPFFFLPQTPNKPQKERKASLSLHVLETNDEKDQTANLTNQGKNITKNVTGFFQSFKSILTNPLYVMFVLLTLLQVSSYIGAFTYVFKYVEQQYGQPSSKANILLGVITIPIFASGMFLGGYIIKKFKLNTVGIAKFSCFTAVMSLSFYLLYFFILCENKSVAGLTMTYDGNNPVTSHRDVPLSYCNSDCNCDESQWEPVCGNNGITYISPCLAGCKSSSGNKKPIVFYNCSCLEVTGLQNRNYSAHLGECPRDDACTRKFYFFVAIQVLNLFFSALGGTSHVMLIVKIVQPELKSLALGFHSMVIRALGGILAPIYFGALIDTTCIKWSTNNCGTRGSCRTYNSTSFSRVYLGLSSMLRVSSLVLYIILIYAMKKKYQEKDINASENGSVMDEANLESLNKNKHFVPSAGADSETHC
Description: (§1) Using a stably transfected cell line of HEK293 expressing transporter OATP1B1, OATP1B3 or OCT2, formal substrate investigation tests were performed for three concentration gradients (30 µM, 3 µM, 0.3 µM) of iruplinalkib.

BSEP = target: T2, BSEP (Homo sapiens, UniProt O95342); assay: BSEP inhibitor investigation; assay type: in vitro ADME
T2 construct: host or cells: membrane vesicles ('Membrane capsule'), BSEP versus NC control, with ATP or AMP

BCRP = target: T3, BCRP (Homo sapiens, UniProt Q9UNQ0); assay: ABC efflux transporter inhibitor test on Caco-2 cells (E3S efflux)
T3 sequence (Q9UNQ0 1-655): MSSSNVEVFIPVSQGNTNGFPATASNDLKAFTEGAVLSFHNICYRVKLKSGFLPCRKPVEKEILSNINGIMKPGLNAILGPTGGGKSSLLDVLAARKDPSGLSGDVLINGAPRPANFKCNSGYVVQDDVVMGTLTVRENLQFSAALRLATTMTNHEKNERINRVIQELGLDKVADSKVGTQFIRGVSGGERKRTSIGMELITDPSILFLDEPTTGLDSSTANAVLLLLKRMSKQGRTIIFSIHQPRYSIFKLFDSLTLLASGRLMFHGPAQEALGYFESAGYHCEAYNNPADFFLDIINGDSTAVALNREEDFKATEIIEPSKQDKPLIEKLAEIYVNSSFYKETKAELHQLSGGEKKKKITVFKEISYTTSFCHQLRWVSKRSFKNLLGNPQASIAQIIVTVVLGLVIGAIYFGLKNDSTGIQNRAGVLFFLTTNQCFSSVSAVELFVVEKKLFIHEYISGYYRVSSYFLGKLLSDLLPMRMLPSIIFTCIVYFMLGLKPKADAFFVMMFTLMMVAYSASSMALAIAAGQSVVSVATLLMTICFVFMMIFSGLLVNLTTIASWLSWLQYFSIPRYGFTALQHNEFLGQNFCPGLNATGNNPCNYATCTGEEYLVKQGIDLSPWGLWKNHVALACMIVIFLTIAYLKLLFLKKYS

AUR2 = AUR2 (Homo sapiens, UniProt O14965); assay: Z'-LYTE kinase selectivity; assay type: biochemical
OAT1 = assay: Uptake inhibitor investigation in HEK293 cells expressing transporter; assay type: in vitro ADME
OAT3 = assay: Uptake substrate investigation in HEK293 cells expressing transporter
Description: The engineered NIH-3T3 (CD74-ROS1 fusion gene) cells was obtained from Nanjing GenScript Biotechnology Co., Ltd. The engineered Ba/F3 (SLC34A2-ROS1 fusion gene) cell line was obtained from Kyinno Biotechnology (Beijing) Co., Ltd. The HCC-78 (SLC34A2-ROS1 fusion gene) cell line was purchased from Shanghai Hongshun Biotechnology Co., Ltd. The engineered NIH-3T3 (CD74-ROS1 fusion gene) cells was obtained from Nanjing GenScript Biotechnology Co., Ltd. The engineered HEK293 cell lines with OATP1B1 (Lot. No ESH6G27), OATP1B3 (Lot. No ESH7G27), OCT2 (Lot. No ESH9G27), OAT1 (Lot. No ESHCG27), OAT3 (Lot. […] No ESHDG27) were purchased from GenoMembrane and validated using the specific substrate for each transporter. All cells were cultured at 37℃ in a 5% CO2 atmosphere. Cell culture reagents were obtained from Life Technologies, Inc. See Supplemental Table 1 for details on the source of the cell lines and the media used.

MATE1 = target: T4, MATE1 (Homo sapiens, UniProt Q96FL8); assay: in vitro
T4 sequence (Q96FL8 1-570): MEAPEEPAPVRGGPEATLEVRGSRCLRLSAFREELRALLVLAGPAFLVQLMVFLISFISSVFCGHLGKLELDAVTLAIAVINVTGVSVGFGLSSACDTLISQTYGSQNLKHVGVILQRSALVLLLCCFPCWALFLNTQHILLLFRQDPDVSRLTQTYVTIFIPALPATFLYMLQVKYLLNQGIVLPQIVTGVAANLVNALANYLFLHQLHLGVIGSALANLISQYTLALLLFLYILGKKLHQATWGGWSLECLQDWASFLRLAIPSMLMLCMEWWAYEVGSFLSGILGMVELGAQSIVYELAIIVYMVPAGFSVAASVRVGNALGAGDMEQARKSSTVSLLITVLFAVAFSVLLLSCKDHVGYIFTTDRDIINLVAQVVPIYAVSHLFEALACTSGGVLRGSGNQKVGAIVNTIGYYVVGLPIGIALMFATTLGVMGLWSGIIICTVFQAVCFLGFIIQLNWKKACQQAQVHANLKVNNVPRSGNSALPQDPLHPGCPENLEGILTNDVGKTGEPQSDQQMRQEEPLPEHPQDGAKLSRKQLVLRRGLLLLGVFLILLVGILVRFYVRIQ
Description: as §1

ALK^C1156Y = ALK^C1156Y (Homo sapiens, UniProt Q9UM73, C1156Y); assay: HTRF kinase activity assay; assay type: biochemical
Description: After the kinase proteins, Ulight-peptide species, adenosine triphosphate (ATP), and compound were mixed, the reaction was carried out at room temperature. Reactions were quenched by the addition of ethylene diamine tetraacetic acid buffer containing Eu antibody and XL665-streptavidin at the indicated time points. Plate reading was performed using an Envision (Perkin Elmer, MA, USA) multifunctional microplate reader.

[2] = human, HEK293 cells expressing OATP1B1, probe ATV (atorvastatin), 1 μM, read-out: Inhibition rate
[3] = human, Caco-2 cells, probe E3S (10 µM)
[4] = human, HEK293 cells expressing OAT1, probe ATV, 1 μM, read-out: Inhibition rate
[5] = MOCK293, test substrate 10 μM, no inhibitor, OAT3 pre-test
[6] = OATP1B1-293 (so in the source), test substrate 10 μM, no inhibitor, OAT3 pre-test
[7] = transporter cells vs MOCK293, test substrate 10 μM, no inhibitor, OAT3 pre-test

T2 sequence (O95342 whole entry): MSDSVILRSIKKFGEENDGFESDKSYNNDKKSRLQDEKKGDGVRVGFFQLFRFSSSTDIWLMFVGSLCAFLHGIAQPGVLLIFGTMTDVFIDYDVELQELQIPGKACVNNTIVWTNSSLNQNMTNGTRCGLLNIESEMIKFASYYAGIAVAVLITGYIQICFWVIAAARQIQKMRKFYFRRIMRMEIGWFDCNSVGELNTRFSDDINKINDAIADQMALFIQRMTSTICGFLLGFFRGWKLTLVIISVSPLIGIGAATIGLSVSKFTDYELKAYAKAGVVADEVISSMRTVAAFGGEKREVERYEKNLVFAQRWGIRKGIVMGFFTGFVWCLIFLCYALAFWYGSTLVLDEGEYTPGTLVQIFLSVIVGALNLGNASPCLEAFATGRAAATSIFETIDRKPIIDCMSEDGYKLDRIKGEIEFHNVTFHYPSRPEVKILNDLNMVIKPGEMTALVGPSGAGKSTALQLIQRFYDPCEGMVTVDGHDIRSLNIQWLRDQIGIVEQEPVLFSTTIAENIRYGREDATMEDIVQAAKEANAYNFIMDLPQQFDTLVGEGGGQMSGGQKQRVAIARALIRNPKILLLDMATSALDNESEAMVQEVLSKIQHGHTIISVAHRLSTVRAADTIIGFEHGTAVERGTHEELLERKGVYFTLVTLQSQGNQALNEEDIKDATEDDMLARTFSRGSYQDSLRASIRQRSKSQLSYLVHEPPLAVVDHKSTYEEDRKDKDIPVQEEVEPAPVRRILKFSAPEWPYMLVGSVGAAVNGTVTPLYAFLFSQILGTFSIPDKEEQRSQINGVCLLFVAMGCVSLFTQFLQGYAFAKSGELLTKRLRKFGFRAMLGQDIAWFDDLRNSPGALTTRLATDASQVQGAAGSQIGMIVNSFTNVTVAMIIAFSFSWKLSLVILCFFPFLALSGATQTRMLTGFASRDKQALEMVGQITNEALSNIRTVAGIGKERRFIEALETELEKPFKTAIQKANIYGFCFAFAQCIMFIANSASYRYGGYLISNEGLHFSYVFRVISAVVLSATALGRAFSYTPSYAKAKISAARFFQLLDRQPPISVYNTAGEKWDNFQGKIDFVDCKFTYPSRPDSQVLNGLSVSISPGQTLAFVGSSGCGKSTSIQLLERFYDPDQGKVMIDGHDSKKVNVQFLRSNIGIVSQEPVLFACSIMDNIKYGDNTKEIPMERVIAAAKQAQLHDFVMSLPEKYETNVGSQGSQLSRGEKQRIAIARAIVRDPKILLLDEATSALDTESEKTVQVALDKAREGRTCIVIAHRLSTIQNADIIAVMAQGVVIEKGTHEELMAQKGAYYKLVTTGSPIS
Sequence of ALK^C1156Y (Q9UM73 19-1620 C1156Y): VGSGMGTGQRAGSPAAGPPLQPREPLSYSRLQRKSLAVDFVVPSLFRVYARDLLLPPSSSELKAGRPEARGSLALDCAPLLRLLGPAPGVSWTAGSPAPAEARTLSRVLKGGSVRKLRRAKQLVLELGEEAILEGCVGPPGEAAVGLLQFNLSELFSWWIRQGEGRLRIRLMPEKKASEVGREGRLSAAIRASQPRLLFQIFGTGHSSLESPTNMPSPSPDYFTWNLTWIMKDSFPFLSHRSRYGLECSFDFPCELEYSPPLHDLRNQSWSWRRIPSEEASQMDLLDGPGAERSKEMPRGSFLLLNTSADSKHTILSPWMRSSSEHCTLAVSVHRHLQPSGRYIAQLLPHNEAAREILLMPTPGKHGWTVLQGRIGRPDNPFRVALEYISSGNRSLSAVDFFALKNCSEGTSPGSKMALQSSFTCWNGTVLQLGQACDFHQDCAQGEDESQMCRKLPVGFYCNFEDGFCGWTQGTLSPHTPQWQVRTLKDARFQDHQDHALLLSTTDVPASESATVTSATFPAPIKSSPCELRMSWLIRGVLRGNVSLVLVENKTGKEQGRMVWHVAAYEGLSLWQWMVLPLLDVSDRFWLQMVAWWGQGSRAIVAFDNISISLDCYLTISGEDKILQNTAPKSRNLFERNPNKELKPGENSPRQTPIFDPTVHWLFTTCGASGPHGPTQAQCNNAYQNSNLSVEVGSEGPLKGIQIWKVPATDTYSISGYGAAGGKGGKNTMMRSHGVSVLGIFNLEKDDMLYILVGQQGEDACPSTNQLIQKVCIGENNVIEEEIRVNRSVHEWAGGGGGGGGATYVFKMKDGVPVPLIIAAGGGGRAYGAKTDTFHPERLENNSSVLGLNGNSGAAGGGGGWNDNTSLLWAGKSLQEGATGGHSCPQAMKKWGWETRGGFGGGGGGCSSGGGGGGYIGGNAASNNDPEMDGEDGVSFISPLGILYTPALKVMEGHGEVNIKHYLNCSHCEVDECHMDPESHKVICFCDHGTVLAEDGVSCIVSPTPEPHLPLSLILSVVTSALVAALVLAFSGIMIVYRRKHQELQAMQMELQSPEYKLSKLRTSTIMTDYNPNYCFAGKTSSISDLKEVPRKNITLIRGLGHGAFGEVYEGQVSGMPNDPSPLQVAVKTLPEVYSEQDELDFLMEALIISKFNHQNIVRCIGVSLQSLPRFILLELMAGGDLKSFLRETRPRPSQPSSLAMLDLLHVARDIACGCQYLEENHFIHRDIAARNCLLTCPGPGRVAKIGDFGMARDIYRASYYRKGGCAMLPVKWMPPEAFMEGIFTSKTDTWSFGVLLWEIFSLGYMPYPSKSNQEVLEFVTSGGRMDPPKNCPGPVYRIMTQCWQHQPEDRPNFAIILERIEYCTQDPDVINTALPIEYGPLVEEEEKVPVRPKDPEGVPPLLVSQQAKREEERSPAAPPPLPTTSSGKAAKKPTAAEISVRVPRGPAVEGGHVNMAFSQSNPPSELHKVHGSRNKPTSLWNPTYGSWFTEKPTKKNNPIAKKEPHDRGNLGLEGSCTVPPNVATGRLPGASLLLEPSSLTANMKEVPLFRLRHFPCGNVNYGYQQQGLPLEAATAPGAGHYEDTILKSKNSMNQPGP
Sequence of AUR2 (O14965 whole entry): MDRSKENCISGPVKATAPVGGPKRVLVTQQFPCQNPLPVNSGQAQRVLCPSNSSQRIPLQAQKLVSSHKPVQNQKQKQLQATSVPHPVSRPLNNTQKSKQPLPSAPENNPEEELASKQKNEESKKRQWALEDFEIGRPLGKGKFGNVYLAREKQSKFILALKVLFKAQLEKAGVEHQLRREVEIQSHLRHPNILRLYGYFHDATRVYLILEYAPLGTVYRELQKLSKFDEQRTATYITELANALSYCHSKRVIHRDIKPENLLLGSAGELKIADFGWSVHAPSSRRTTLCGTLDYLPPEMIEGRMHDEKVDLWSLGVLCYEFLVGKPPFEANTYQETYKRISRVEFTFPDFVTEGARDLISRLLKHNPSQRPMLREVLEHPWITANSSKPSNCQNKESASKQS

COc1cc(N2CCC3(CCN(C)CC3)CC2)ccc1Nc1ncc(Cl)c(Nc2ccccc2P(C)(C)=O)n1 [Iruplinalkib]
remaining rates in plasma after incubation for 5 h [1]: 95–109.3% | recovery ([1]; CD-1 (mouse), SD (rat), Beagle (dog), plasma, read-out: recovery rates in the dialysis device): 81.8 to 99.9% | inhibition of OATP1B1 uptake activity (OATP1B1; HEK293): can inhibit the uptake activity | inhibition at 0.5 μM (OATP1B1; [2]): 26.5% | inhibition at 5 μM (OATP1B1; [2]): 28.9% | inhibition at 50 μM (OATP1B1; [2]): 67.8% | efflux inhibitor of BSEP (BSEP): not an efflux inhibitor | inhibition at 0.1 μM (BSEP; BSEP membrane capsules (membrane vesicles), ATP vs AMP, probe TCA, BSEP, substrate TCA 10 μM, inhibitor 0.1 μM, read-out: Inhibition rate): -25.4% | inhibition at 0.3 μM (BSEP; BSEP membrane capsules (membrane vesicles), ATP vs AMP, probe TCA, BSEP, substrate TCA 10 μM, inhibitor 0.3 μM, read-out: Inhibition rate): -10.7% | inhibition at 1 μM (BSEP; BSEP membrane capsules (membrane vesicles), ATP vs AMP, probe TCA, BSEP, substrate TCA 10 μM, inhibitor 1 μM, read-out: Inhibition rate): -26.7% | inhibition at 3 μM (BSEP; BSEP membrane capsules (membrane vesicles), ATP vs AMP, probe TCA, BSEP, substrate TCA 10 μM, inhibitor 3 μM, read-out: Inhibition rate): -11.8% | inhibition at 10 µM (BSEP; BSEP membrane capsules (membrane vesicles), ATP vs AMP, probe TCA, BSEP, substrate TCA 10 μM, inhibitor 10 μM, read-out: Inhibition rate): -10.5% | inhibition at 30 μM (BSEP; BSEP membrane capsules (membrane vesicles), ATP vs AMP, probe TCA, BSEP, substrate TCA 10 μM, inhibitor 30 μM, read-out: Inhibition rate): -0.09% | inhibition at 100 μM (BSEP; BSEP membrane capsules (membrane vesicles), ATP vs AMP, probe TCA, BSEP, substrate TCA 10 μM, inhibitor 100 μM, read-out: Inhibition rate): 26.3% | BCRP inhibitor (BCRP; Caco-2): BCRP inhibitor | inhibition at 0.1 μM (BCRP; [3]): -11.1% | inhibition at 0.3 μM (BCRP; [3]): 37.7% | inhibition at 1 μM (BCRP; [3]): 8.3% | inhibition at 3 μM (BCRP; [3]): 50.9% | inhibition at 10 µM (BCRP; [3]): 97.2% | inhibition at 30 μM (BCRP; [3]): 26.3% | IC50 (AUR2): 1080 ± 106 nM | inhibitor of OAT1 (OAT1; HEK293): can not be its inhibitor | inhibition at 0.5 μM (OAT1; [4]): 26.7% | inhibition at 5 μM (OAT1; [4]): 22.5% | inhibition at 50 μM (OAT1; [4]): 31.9% | uptake substrate of OAT3 (OAT3; HEK293): not an uptake substrate | Uptake transport activity, Mean (OAT3; [5]): 344.0 pmol/mg protein/min | Uptake transport activity, Repeat 1 / Repeat 2 (OAT3; [5]): 309.8 pmol/mg protein/min and 378.3 pmol/mg protein/min | Uptake transport activity, Mean (OAT3; [6]): 88.57 pmol/mg protein/min | Uptake transport activity, Repeat 1 / Repeat 2 (OAT3; [6]): 81.45 pmol/mg protein/min and 95.69 pmol/mg protein/min | Ratio of uptake transit activity (OAT3; [7]): 0.92 | Uptake transport activity, Net value (OAT3; [7]): -255.5 pmol/mg protein/min | inhibition at 0.5 μM (MATE1): 46.4% | inhibition at 5 μM (MATE1): 94.5% | inhibition at 50 μM (MATE1): 112% | IC50 (ALK^C1156Y): 9.28 nM and < 10 nM

— article PMC10140010 (Investigational New Drugs, 2023)
